Reference: patent publication US6020366A, “Butyric acid matrix metalloproteinase inhibitors” (priority 1998, dated 2000)
Read-outs that look alike come from different tables or passages of the source.

Key:
Type in all cases: biochemical
MMP-2 (Gelatinase A) = target: T1, MMP-2 (Gelatinase A) (Homo sapiens, UniProt P08253); assay: inhibition of MMP-2 hydrolysis of thiopeptolide substrate
T1 sequence (P08253 110-660): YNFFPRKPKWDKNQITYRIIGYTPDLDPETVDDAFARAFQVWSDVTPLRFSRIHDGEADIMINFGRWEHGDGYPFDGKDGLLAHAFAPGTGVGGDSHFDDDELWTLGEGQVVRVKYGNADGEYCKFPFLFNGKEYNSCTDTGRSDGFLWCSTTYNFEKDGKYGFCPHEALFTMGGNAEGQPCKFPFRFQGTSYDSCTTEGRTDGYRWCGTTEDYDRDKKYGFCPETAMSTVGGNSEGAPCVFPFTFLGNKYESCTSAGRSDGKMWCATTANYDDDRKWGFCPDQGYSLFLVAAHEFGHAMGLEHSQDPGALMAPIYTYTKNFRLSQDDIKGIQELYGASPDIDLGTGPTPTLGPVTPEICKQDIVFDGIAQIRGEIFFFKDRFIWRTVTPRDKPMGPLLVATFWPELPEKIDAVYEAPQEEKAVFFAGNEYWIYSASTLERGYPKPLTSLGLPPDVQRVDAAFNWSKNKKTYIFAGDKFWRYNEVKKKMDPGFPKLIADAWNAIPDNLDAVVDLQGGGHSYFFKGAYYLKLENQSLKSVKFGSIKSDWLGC

MMP-3 (stromelysin) = MMP-3 (stromelysin) (Homo sapiens, UniProt P08254); assay: inhibition of MMP-3 hydrolysis of thiopeptolide substrate
Text: The assays measure the amount by which a test compound reduces the hydrolysis of a thiopeptolide substrate caused by a matrix metalloproteinase enzyme. Such assays are described in detail by Ye, et al., in Biochemistry, 1992;31(45):11231-11235).
Thiopeptolide substrates show virtually no decomposition or hydrolysis in the absence of a matrix metalloproteinase enzyme. A typical thiopeptolide substrate commonly utilized for assays is Ac-Pro-Leu-Gly-thioester-Len-Len-Gly-O Et. […] Assays are carried out with and without matrix metalloproteinase inhibitor compounds, and the amount of hydrolysis is compared for a determination of inhibitory activity of the test compounds.
In the table, MMP-1 refers to interstitial collagenase; MMP-2 refers to Gelatinase A; MMP-3 refers to stromelysin; MMP-7 refers to matrilysin; and MMP-13 refers to Collagenase 3.

MMP-13 (Collagenase 3) = MMP-13 (Collagenase 3) (Homo sapiens, UniProt P45452); assay: inhibition of MMP-13 hydrolysis of thiopeptolide substrate
Text: The invention compounds have been evaluated in standard in vitro assays and shown to be potent inhibitors of several matrix metalloproteinase enzymes.

[1] = thiopeptolide substrate, pH 6.0, 22° C., read-out: (IC50) MMP-2
[2] = thiopeptolide substrate, pH 6.0, 22° C., read-out: (IC50) MMP-3
[3] = thiopeptolide substrate, pH 6.0, 22° C., read-out: (IC50) MMP-13

Chain of MMP-3 (stromelysin) (P08254 100-477): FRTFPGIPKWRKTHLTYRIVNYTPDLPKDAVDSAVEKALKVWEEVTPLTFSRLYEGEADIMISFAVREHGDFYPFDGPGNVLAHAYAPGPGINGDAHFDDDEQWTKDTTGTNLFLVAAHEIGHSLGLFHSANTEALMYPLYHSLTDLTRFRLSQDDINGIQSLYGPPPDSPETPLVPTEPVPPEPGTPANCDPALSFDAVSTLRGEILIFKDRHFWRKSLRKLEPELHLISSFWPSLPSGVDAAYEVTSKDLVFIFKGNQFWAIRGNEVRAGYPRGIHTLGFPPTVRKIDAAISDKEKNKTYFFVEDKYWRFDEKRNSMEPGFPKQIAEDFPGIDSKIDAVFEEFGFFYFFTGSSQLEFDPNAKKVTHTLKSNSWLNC

IC50 (MMP-2 (Gelatinase A); [1]) [nM] | IC50 (MMP-3 (stromelysin); [2]) [nM] | IC50 (MMP-13 (Collagenase 3); [3]) [nM] | SMILES | IC50 (MMP-2 (Gelatinase A)) [nM] | IC50 (MMP-3 (stromelysin)) [nM] | IC50 (MMP-13 (Collagenase 3)) [nM]
44000 | 78000 | – | O=C(C[C@@H](NC(=O)C(F)(F)F)C(=O)O)c1ccc2oc3ccccc3c2c1 [Example 2, (R)-4-Dibenzofuran-2-yl-4-oxo-2-(2,2,2-trifluoroacetylamino)-butyric acid] | – | – | –
320 | 1700 | – | CC(C)c1cccc(C(C)C)c1NC(=O)N[C@@H](CC(=O)c1ccc2oc3ccccc3c2c1)C(=O)O [Example 5, (S)-4-Dibenzofuran-2-yl-2-[3-(2,6-diisopropyl-phenyl)-ureido]-4-oxo-butyric acid] | – | – | –
180 | 910 | – | O=C(C[C@H](NC(=O)c1ccccc1)C(=O)O)c1ccc2oc3ccccc3c2c1 [Example 6, (S)-2-Benzoylamino-4-dibenzofuran-2-yl-4-oxo-butyric acid] | – | – | –
67 | 290 | 1300 | O=C(CCc1ccccc1)N[C@@H](CC(=O)c1ccc2oc3ccccc3c2c1)C(=O)O [Example 8, (S)-4-Dibenzofuran-2-yl-4-oxo-2-(3-phenylpropionylamino)-butyric acid] | – | – | –
510 | 3900 | – | O=C(CCCCCCc1ccccc1)N[C@@H](CC(=O)c1ccc2oc3ccccc3c2c1)C(=O)O [Example 9, (S)-4-Dibenzofuran-2-yl-4-oxo-2-(7-phenylheptanoylamino)-butyric acid] | – | – | –
1640 | 9400 | – | O=C(C[C@H](NC(=O)c1ccc(-c2ccccc2)cc1)C(=O)O)c1ccc2oc3ccccc3c2c1 [Example 10, (S)-2-[(Biphenyl-4-carbonyl)-amino]-4-dibenzofuran-2-yl-4-oxo-butyric acid] | – | – | –
360 | 2700 | 6800 | CCCCCCCC(=O)N[C@@H](CC(=O)c1ccc2oc3ccccc3c2c1)C(=O)O [Example 11, (S)-4-Dibenzofuran-2-yl-4-oxo-2-(octanoylamino)-butyric acid] | – | – | –
8800 | 4000 | – | CCCCCCCCCCCC(=O)N[C@@H](CC(=O)c1ccc2oc3ccccc3c2c1)C(=O)O [Example 12, (S)-4-Dibenzofuran-2-yl-4-oxo-2-(dodecanoylamino)-butyric acid] | – | – | –
280 | 9200 | – | CS(=O)(=O)N[C@@H](CC(=O)c1ccc2oc3ccccc3c2c1)C(=O)O [Example 13, (S)-4-Dibenzofuran-2-yl-4-oxo-2-methanesulfonylamino-butyric acid] | – | – | –
12500 | 76500 | – | O=C(C[C@H](NC(=O)C(F)(F)F)C(=O)O)c1ccc2c(c1)Cc1ccccc1-2 [Example 15, (S)-4-(9H-fluoren-2-yl)-4-oxo-2-(2,2,2-trifluoroacetylamino)-butyric acid] | – | – | –
720 | 6600 | 2400 | O=C(O)[C@H](CC(=NO)c1ccc2oc3ccccc3c2c1)NC(=O)C(F)(F)F [Example 16, (S)-4-Dibenzofuran-2-yl-4-hydroxyimino-2-(2,2,2-trifluoroacetylamino)-butyric acid] | – | – | –
100 | 360 | 1100 | O=C(CC(NC(=O)C(c1ccccc1)c1ccccc1)C(=O)O)c1ccc2oc3ccccc3c2c1 (stereo not drawn) [Example 18, 4-Dibenzofuran-2-yl-2-diphenylacetylamino-4-oxo-butyric acid] | – | – | –
640 | 3100 | 46000 | O=C(COc1ccc(Cl)cc1)NC(CC(=O)c1ccc2oc3ccccc3c2c1)C(=O)O (stereo not drawn) [Example 19, 2-[2-(4-Chloro-phenoxy)-acetylamino]-4-dibenzofuran-2-yl-4-oxo-butyric acid] | – | – | –
1300 | 7000 | 38000 | O=C(CC(NC(=O)c1ccc(Cl)c(Cl)c1)C(=O)O)c1ccc2oc3ccccc3c2c1 (stereo not drawn) [Example 20] | – | – | –
320 | 2400 | 16000 | COc1ccc(CC(=O)NC(CC(=O)c2ccc3oc4ccccc4c3c2)C(=O)O)cc1OC (stereo not drawn) [Example 21, 4-Dibenzofuran-2-yl-2-[2-(3,4-dimethoxy-phenyl)-acetylamino] -4-oxo-butyric acid] | – | – | –
1700 | 6900 | 28000 | O=C(CC(NC(=O)c1ccc2ccccc2c1)C(=O)O)c1ccc2oc3ccccc3c2c1 (stereo not drawn) [Example 22, 4-Dibenzofuran-2-yl-2-[(naphthalene-2-carbonyl)-amino] -4-oxo-butyric acid] | – | – | –
170 | 760 | 5600 | CCCC(C)(C)C(=O)NC(CC(=O)c1ccc2oc3ccccc3c2c1)C(=O)O (stereo not drawn) [Example 23, 4-Dibenzofuran-2-yl-2-(2,2-dimethyl-pentanoylamino)-4-oxo-butyric acid] | – | – | –
3200 | 13000 | 41000 | O=C(CC(NC(=O)c1ccncc1)C(=O)O)c1ccc2oc3ccccc3c2c1 (stereo not drawn) [Example 24, 4-Dibenzofuran-2-yl-4-oxo-2-[(pyridine-4-carbonyl)-amino]-butyric acid] | – | – | –
110 | 800 | 8400 | O=C(C=Cc1ccccc1)NC(CC(=O)c1ccc2oc3ccccc3c2c1)C(=O)O (stereo not drawn) [Example 25, 4-Dibenzofuran-2-yl-4-oxo-2-(3-phenyl-acryloylamino)-butyric acid] | – | – | –
2100 | 9200 | 40000 | O=C(CC(NC(=O)C12CC3CC(CC(C3)C1)C2)C(=O)O)c1ccc2oc3ccccc3c2c1 (stereo not drawn) [Example 26, 2-[(Adamantane-1-carbonyl)-amino]-4-dibenzofuran-2-yl-4-oxo-butyric acid] | – | – | –
– | – | – | O=C(CC(NC(=O)C(F)(F)C(F)(F)C(F)(F)C(F)(F)C(F)(F)C(F)(F)C(F)(F)F)C(=O)O)c1ccc2oc3ccccc3c2c1 (stereo not drawn) [Example 27, 4-Dibenzofuran-2-yl-4-oxo-2-(2,2,3,3,4,4,5,5,6,6,7,7,8,8,8-pentadecafluoro-octanoylamino)-butyric acid] | 4600 | 18000 | 77000
180 | 510 | 12000 | O=C(COc1ccccc1)NC(CC(=O)c1ccc2oc3ccccc3c2c1)C(=O)O (stereo not drawn) [Example 28, 4-Dibenzofuran-2-yl-4-oxo-2-(2-phenoxy-acetylamino)-butyric acid] | – | – | –
– | 390 | 5200 | Cc1ccc(C(=O)NC(CC(=O)c2ccc3oc4ccccc4c3c2)C(=O)O)cc1 (stereo not drawn) [Example 29, 4-Dibenzofuran-2-yl-2-(4-methyl-benzoylamino)-4-oxo-butyric acid] | – | – | –
600 | 5300 | 25000 | O=C(CCCc1ccc(Br)cc1)NC(CC(=O)c1ccc2oc3ccccc3c2c1)C(=O)O (stereo not drawn) [Example 31, 2-[4-(4-Bromo-phenyl)-butyrylamino]-4-dibenzofuran-2-yl-4-oxo-butyric acid] | – | – | –
41 | 330 | 3500 | O=C(COCc1ccccc1)NC(CC(=O)c1ccc2oc3ccccc3c2c1)C(=O)O (stereo not drawn) [Example 32, 2-(2-Benzyloxy-acetylamino)-4-dibenzofuran-2-yl-4-oxo-butyric acid] | – | – | –
60 | 640 | 4700 | CCCCCCC(=O)NC(CC(=O)c1ccc2oc3ccccc3c2c1)C(=O)O (stereo not drawn) [Example 33, 4-Dibenzofuran-2-yl-2-heptanoylamino-4-oxo-butyric acid] | – | – | –
870 | 5400 | 49000 | CCCCc1ccc(C(=O)NC(CC(=O)c2ccc3oc4ccccc4c3c2)C(=O)O)cc1 (stereo not drawn) [Example 34, 2-(4-Butyl-benzoylamino)-4-dibenzofuran-2-yl-4-oxo-butyric acid] | – | – | –
110 | 1100 | 11000 | N#Cc1ccc(C(=O)NC(CC(=O)c2ccc3oc4ccccc4c3c2)C(=O)O)cc1 (stereo not drawn) [Example 35, 2-(4-Cyano-benzoylamino)-4-dibenzofuran-2-yl-4-oxo-butyric acid] | – | – | –
140 | 1000 | 13000 | O=C(CC(NC(=O)c1sccc1Cl)C(=O)O)c1ccc2oc3ccccc3c2c1 (stereo not drawn) [Example 36, 2-[(3-Chloro-thiophene-2-carbonyl)-amino)-4-dibenzofuran-2-yl-4-oxo-butyric acid] | – | – | –
5200 | 28000 | – | O=C(CC(NC(=O)c1c(F)c(F)c(F)c(F)c1F)C(=O)O)c1ccc2oc3ccccc3c2c1 (stereo not drawn) [Example 40, 4-Dibenzofuran-2-yl-4-oxo-2-(2,3,4,5,6-pentafluoro-benzoylamino)-butyric acid] | – | – | –

SMILES | IC50 (MMP-2 (Gelatinase A); [1]) [nM] | IC50 (MMP-3 (stromelysin); [2]) [nM] | IC50 (MMP-13 (Collagenase 3); [3]) [nM] | IC50 (MMP-2 (Gelatinase A)) [nM] | IC50 (MMP-3 (stromelysin)) [nM] | IC50 (MMP-13 (Collagenase 3)) [nM]
CC(=O)N[C@@H](CC(=O)c1ccc2oc3ccccc3c2c1)C(=O)O [Example 4, (S)-2-Acetylamino-4-dibenzofuran-2-yl-4-oxo-butyric acid] | – | 1600 | – | – | – | –
